Assay [1] deals with T1, RORγt (Homo sapiens, UniProt P51449).
T1 sequence (P51449 1-497 isoform P51449-2): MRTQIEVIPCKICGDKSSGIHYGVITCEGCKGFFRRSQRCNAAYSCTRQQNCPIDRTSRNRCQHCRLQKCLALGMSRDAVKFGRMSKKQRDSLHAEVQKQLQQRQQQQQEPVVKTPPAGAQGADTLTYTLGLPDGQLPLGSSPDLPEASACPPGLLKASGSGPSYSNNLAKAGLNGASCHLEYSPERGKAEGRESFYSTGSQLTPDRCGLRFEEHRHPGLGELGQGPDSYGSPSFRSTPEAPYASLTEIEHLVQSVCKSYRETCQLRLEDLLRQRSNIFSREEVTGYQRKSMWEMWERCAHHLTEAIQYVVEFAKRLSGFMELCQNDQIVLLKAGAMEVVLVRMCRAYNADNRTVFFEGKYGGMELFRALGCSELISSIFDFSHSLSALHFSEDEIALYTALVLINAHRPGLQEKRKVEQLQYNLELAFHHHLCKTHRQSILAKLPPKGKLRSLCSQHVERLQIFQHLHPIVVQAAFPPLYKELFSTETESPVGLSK
Description: RORγt binding test using fluorescent-labeled synthetic ligand (TR-FRET). The following applies: test compound 1 μM; read-out: binding inhibitory rate (%) of fluorescent-labeled synthetic ligand to RORγt at test compound 1 μM. The procedure, abridged:
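Compound displacement of a fluorescent-labeled synthetic ligand from His-tagged RORγt was read by TR-FRET with a terbium anti-His antibody. Buffer was 20 mM Tris-HCl pH 7.5, 100 mM NaCl, 1 mM DTT and 0.1% BSA, with stocks of 240 nM protein, 12 μM ligand and 8 nM antibody (pre-mix, not final). Incubations were 20 min plus 20 min at room temperature, with excitation at 320 nm, emission at 520 nm and a 100 μs delay.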
On the technique in general: Time-resolved FRET reads energy transfer from a long-lived donor to a nearby acceptor.

Assay [2] addresses T1, RORγt. Description: Cofactor recruitment test (Alpha Screen, biotinylated SRC-1 peptide). Conditions: read-out: signal value inhibitory rate (%) at test compound 1 μM. The class given is biochemical. Here is the method: Cofactor Recruitment Test
Cofactor recruitment test was performed by Alpha Screen (Histidine Detection Kit, PerkinElmer) method. First, a test compound was diluted with an assay buffer (50 mM Tris-HCl (pH 7.5), 50 mM KCl, 1 mM DTT, 0.1% BSA) and added to a 384 well plate by 5 μL. […] The mixture was stood in a dark place for 1 hr, and the signal value was measured by Envision (PerkinElmer).

Assay [3] has as its target T1, RORγt. Description: Jurkat reporter test (human IL-17 ROR response element luciferase reporter, RORγt vector). The class given is cell-based. Conditions: test compound 3 μM; Jurkat cells; read-out: luminescence level inhibitory rate (%) at test compound 3 μM. The procedure, abridged: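 Jurkat cells were electroporated (1350 V, 10 ms, 3 pulses) with the reporter constructs and plated in RPMI with 10% lipid-reduced FCS, 10 mM HEPES pH 7.5 and 5 μM lovastatin. After overnight culture with compound, luciferase activity was measured by luminescence following a 10 min room-temperature incubation with Bright-Glo.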
(Reporter assays use an easily measured gene product as a stand-in for the process of interest.)

Take `CC(C)n1c(=O)n(CC2CCOC2)c(=O)c2cc(NC(=O)N3CCO[C@@H](C(=O)Nc4ccc(C#N)c(Cl)c4)C3)c(F)cc21` (stereo partly drawn) [Example 335, (2R)—N^2-(3-chloro-4-cyanophenyl)-N^4-(7-fluoro-1-isopropyl-2,4-dioxo-3-(tetrahydrofuran-3-ylmethyl)-1,2,3,4-tetrahydroquinazolin-6-yl)morpholine-2,4-dicarboxamide]: the values for the inhibition at 1 µM in assay [1] and in assay [2] were 101% and 108%, respectively. The inhibition at 3 µM in assay [3] turned out to be 106%.
Turning to `CC(C)n1c(=O)n(CC2CC2)c(=O)c2cc(NC(=O)N3CCCC(NC(=O)Nc4ccccc4)C3)ccc21` (stereo not drawn) [Example 146, N-(3-(cyclopropylmethyl)-1-isopropyl-2,4-dioxo-1,2,3,4-tetrahydroquinazolin-6-yl)-3-((phenylcarbamoyl)amino) piperidine-1-carboxamide], the inhibition at 1 µM in assay [1] worked out at 102%; in assay [2], 103%. For the same molecule, the inhibition at 3 µM in assay [3] was 101%.
The like results for `CC(C)n1c(=O)n(C[C@@H]2CCCO2)c(=O)c2cc(NC(=O)N3CCO[C@@H](C(=O)Nc4cc(Cl)c(C#N)cc4F)C3)c(F)cc21` [Example 358, (2R)—N^2-(5-chloro-4-cyano-2-fluorophenyl)-N^4-(7-fluoro-1-isopropyl-2,4-dioxo-3-((2S)-tetrahydrofuran-2-ylmethyl)-1,2,3,4-tetrahydroquinazolin-6-yl)morpholine-2,4-dicarboxamide] were, in that order, 101%, 107% and 106%.
With `CC(C)n1c(=O)n(CC2CC2)c(=O)c2cc(NC(=O)N3CCC[C@@H](N4Cc5ccc(Cl)cc5C4=O)C3)c(F)cc21` [Example 336, (3R)-3-(6-chloro-1-oxo-1,3-dihydro-2H-isoindol-2-yl)-N-(3-(cyclopropylmethyl)-7-fluoro-1-isopropyl-2,4-dioxo-1,2,3,4-tetrahydroquinazolin-6-yl)piperidine-1-carboxamide], the inhibition at 1 µM in assay [1] is 102%; in assay [2], 106%. For the same molecule, the inhibition at 3 µM in assay [3] came out at 106%.
Take `CC(C)n1c(=O)n(CC2CC2)c(=O)c2cc(NC(=O)N3CCO[C@@H](C(=O)Nc4ccc(C#N)c(F)c4)C3)c(F)cc21` [Example 172, (2R)-N^2-(4-cyano-3-fluorophenyl)-N^4-(3-(cyclopropylmethyl)-7-fluoro-1-isopropyl-2,4-dioxo-1,2,3,4-tetrahydroquinazolin-6-yl)morpholine-2,4-dicarboxamide]: the inhibition at 1 µM in assay [1] was 102%; in assay [2] it was 111%. For the same molecule, in assay [3], the inhibition at 3 µM stood at 105%.
Turning to `CC(C)n1c(=O)n(CC2CC2)c(=O)c2cc(NC(=O)N3CCC[C@@H](NC(=O)c4ccc(C#N)nc4)C3)ccc21` [Example 223, 6-cyano-N-((3R)-1-((3-(cyclopropylmethyl)-1-isopropyl-2,4-dioxo-1,2,3,4-tetrahydroquinazolin-6-yl)carbamoyl)piperidin-3-yl)nicotinamide], the inhibition at 1 µM in assay [1] stood at 102%; in assay [2] it was 111%. The inhibition at 3 µM in assay [3] worked out at 102%.
For the molecule `CC(C)n1c(=O)n(CC2CC2(F)F)c(=O)c2cc(NC(=O)N3CCCC(n4cnc5cc(C#N)ccc5c4=O)C3)c(F)cc21` (mixture of isomers) [Example 360, (3R)-3-(7-cyano-4-oxoquinazoline-3(4H)-yl)-N-(3-((2,2-difluorocyclopropyl)methyl)-7-fluoro-1-isopropyl-2,4-dioxo-1,2,3,4-tetrahydroquinazolin-6-yl)piperidine-1-carboxamide (mixture of two stereoisomers)], the inhibition at 1 µM in assay [1] was 101%; in assay [2] it was 105%. In assay [3], the inhibition at 3 µM was 107%.

Source of the values: patent US10000488B2, “Heterocyclic compound” (TAKEDA PHARMACEUTICAL COMPANY LIMITED, priority 2014, dated 2018).
